# Results published in US20100087475A1, “PHARMACEUTICAL COMPOUNDS” (Biovali Laboratories International (Barbados) S.R.L., priority 2008, published 2010).
# pKi: −log10 of the molar value.
# Assays:
# VMAT-2 = target: T1, VMAT-2 (Rattus norvegicus, UniProt Q01827); test: [3H] Dihydrotetrabenazine binding assay for VMAT-2 (Assay B); conditions: [3H] dihydrotetrabenazine 5 nM, rat brain homogenate, competition binding
# T1 construct: from tissue; host or cells: rat brain, 6 mm coronal slice incorporating the striatum, homogenate
# From the text: Screen for VMAT-2 binding activity using a [^3H] Dihydrotetrabenazine binding Assay
# Dihydrotetrabenazine is a very potent and selective inhibitor of VMAT-2, and binds with high affinity (nM range) to this vesicular transporter. [^3H] Dihydrotetrabenazine has been successfully used for many years as a radioligand to label VMAT-2 in human, bovine and rodent brain (e.g. Scherman et al. J. Neurochem. 50, 1131-1136 (1988); Near et al. Mol. Pharmacol. 30, 252-257 (1986); Kilbourn et al. Eur. J. Pharmacol. 278, 249-252 (1995); and Zucker et al. Life Sci. 69, 2311-2317 (2001)).
# Charles River CD-1 rats were euthanized by decapitation and the brains dissected free and placed in ice cold PBS. The chilled brain was placed in a coronal brain matrix (Activational Systems, Inc) with 1 mm intervals. Single edge razor blades were inserted such that a 6 mm slice incorporating the striatum was removed. The tissue was weighed and placed in an ice-cold hand homogenizer, 10 volumes of KBS-EDTA (137 mM KCl, 3 mM NaCl, 8 mM K2HPO4, 1.5 mM NaH2PO4, 1 mM EDTA, pH 8.0) were added and the tissue homogenized with 10 strokes (maintaining on ice). Aliquots were placed into 500 μl microfuge tubes and then stored at −80° C. for later assays. A fresh aliquot was taken for protein assay. Protein concentrations were determined using BCA Protein Assay (Pierce Chemical) with bovine serum albumin as the standard. For VMAT2 assay, aliquots were thawed and placed on ice, and diluted with KBS-EDTA for a final protein concentration of 1 mg/ml.
# Whatman GF/C filters (Acros) were presoaked with PBS/0.1% polyethylenimine at room temperature and then placed on a 48 place cell harvester (Brandel). Harvester was loaded with labeled tubes (12×75 mm) in the test tube rack. Into the tubes were placed 10 μl of the compound dilutions to their respective triplicate tubes and 1 μl of 10 mM TBZ added to the tubes used for non-specific binding measurements. Into each tube was then placed 0.5 ml of a 10 nM [^3H] dihydrotetrabenazine (DTBZ) dilution (American Radiolabeled Chemicals) in KBS-EDTA, the tubes were vortexed, and then 0.5 ml of the 1 mg/ml rat forebrain tissue homogenate solution was added into all tubes. Each tube was vortexed briefly and then incubated at room temperature for 30 minute.
# Final concentrations of samples were 500 μg protein, 5 nM [3H]DTBZ; 10 μM TBZ (for nonspecific tubes) in 1 ml total volume. […] Filter circles were placed in scintillation vials and 10 ml of Universol (ICN) was added, samples incubated overnight and then counted on a Packard Tri-Carb 1600 scintillation counter.
# Competition binding isotherms were analyzed with the use of computer-assisted nonlinear curve-fitting (LIGAND program) using both one and two site models.
# Dopamine D2L Receptor = target: T2, Dopamine D2L Receptor (Homo sapiens, UniProt P14416); test: Radioligand binding, [3H] Spiperone; conditions: compound at 10 μM
# T2 construct: expressed in transfected cells; host or cells: CHO cells
# Method: (§1) Compounds of the invention were subjected to specific binding assays to test their ability to bind to the receptors and transporter proteins described below.
# (e) Dopamine D2L Receptor:
# (§2) • Reference: Grandy et al., Proc. Natl. Acad. Sci. USA, 86:9762-9766 (1989) • Source: Human recombinant CHO cells • Ligand: 0.16 nM [^3H]
# Sigma σ1 Receptor = target: T3, Sigma σ1 Receptor (Homo sapiens, UniProt Q99720); test: Radioligand binding, [3H] Haloperidol, jurkat cells; conditions: compound at 10 μM
# T3 construct: Source: Human jurkat cells; endogenous in cells; host or cells: Jurkat cells
# Method: as §1
# • Reference: Ganaphthy et al., Pharmacol. Exp. Ther., 289:251-260, (1999) • Source: Human jurkat cells • Ligand: 8 nM [3H]
# Dopamine D2S Receptor = target: T4, Dopamine D2S Receptor (Homo sapiens, UniProt P14416); test: Radioligand binding, [3H] Spiperone; conditions: compound at 10 μM
# T4 construct: expressed in transfected cells; host or cells: CHO cells
# Method: as §1
# (f) Dopamine D2S Receptor:
# as §2
# [1] = system: Imidazoline I2 (Central) Receptor; test: Radioligand binding, [3H] Idazoxan, cerebral cortex; parameters: species or system Wistar rat; conditions: compound at 10 μM
# Method: as §1
# (k) Imidazoline I2 (Central) Receptor:
# • Reference: Brown et al., Brit. J. Pharmacol., 99:803-809, (1990) • Source: Wistar rat cerebral cortex • Ligand: 2 nM [^3H]
# Dopamine D1 Receptor = target: T5, Dopamine D1 Receptor (Homo sapiens, UniProt P21728); test: Radioligand binding, [3H] SCH-23390; conditions: compound at 10 μM
# T5 construct: expressed in transfected cells; host or cells: CHO cells
# Method: as §1
# (d) Dopamine D1 Receptor:
# • Reference: Dearry et al., Nature, 347:72-76, (1990) • Source: Human recombinant CHO cells • Ligand: 1.4 nM [3H] SCH-23390 • Vehicle: 1% DMSO • Incubation time/Temp: 2 hours @ 37° C. • Incubation buffer: 50 mM Tris-HCl, pH 7.4, 150 mM NaCl, 1.4 mM ascorbic acid, 0.001% BSA • Non Specific ligand: 10 μM (+)-butaclamol • Kd: 1.4 nM • Bmax: 0.63 pmole/mg protein • Specific binding: 90% • Quantitation method: Radioligand binding • Significance criteria: ≧50% of maximum stimulation or inhibition
# Adrenergic α2B Receptor = target: T6, Adrenergic α2B Receptor (Homo sapiens, UniProt P18089); test: Radioligand binding, [3H] Rauwolscine; conditions: compound at 10 μM
# T6 construct: expressed in transfected cells; host or cells: CHO-K1 cells
# T6 sequence (P18089 1-450): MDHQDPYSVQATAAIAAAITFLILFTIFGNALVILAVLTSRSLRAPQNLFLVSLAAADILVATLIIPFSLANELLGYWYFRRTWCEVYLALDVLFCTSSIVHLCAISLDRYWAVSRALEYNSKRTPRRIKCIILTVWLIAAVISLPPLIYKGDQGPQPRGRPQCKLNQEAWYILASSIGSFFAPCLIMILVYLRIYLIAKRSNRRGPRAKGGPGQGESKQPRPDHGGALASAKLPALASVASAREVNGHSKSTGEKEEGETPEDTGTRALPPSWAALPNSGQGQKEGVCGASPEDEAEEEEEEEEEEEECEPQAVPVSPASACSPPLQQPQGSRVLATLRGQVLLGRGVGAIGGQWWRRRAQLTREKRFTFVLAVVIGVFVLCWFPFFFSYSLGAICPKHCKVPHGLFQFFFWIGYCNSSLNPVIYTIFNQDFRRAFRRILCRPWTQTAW
# Method: as §1
# (b) Adrenergic α2B Receptor:
# • Reference: S. Uhlen et al., Eur. J. Pharmacol., 343 (1): 93-1-01 (1998) • Source: Human recombinant CHO-K1 cells • Ligand: 2.5 nM [3H]
# T1 sequence (Q01827 whole entry): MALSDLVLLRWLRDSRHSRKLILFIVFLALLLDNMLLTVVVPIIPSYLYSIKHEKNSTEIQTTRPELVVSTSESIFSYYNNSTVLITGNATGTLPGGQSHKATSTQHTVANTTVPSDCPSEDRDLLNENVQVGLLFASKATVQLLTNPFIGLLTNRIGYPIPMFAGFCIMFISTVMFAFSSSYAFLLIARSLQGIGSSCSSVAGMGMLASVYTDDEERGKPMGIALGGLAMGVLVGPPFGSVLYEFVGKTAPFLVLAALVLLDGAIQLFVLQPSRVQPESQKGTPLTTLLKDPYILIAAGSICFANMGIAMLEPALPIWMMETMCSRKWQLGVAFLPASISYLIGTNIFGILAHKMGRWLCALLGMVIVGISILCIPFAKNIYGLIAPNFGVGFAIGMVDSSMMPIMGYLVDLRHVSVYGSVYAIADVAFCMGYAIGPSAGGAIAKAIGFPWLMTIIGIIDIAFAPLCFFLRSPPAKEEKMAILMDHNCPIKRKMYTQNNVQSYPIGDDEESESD
# T4 sequence (P14416 1-414 isoform P14416-2): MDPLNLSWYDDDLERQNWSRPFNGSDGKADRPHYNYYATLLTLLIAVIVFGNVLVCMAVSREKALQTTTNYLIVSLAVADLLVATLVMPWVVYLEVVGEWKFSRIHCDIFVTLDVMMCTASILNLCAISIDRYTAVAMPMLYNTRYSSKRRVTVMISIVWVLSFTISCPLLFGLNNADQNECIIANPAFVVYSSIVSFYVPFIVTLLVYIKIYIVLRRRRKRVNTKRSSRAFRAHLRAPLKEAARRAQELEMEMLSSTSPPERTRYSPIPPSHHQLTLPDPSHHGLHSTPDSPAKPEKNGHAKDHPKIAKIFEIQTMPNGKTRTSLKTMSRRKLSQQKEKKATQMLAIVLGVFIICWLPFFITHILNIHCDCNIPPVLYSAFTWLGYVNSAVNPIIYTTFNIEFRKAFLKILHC
# T2 sequence (P14416 whole entry): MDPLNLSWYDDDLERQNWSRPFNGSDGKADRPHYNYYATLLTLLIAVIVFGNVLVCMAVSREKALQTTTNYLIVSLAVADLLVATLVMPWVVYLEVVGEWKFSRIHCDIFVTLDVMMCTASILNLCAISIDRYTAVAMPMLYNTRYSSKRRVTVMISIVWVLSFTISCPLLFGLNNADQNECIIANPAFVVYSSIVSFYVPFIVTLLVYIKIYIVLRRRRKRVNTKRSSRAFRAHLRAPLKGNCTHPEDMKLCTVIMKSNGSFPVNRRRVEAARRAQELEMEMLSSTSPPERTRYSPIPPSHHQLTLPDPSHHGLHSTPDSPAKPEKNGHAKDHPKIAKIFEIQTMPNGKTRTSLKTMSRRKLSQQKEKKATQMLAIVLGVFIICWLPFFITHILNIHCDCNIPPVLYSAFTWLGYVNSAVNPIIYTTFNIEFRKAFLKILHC
# T5 sequence (P21728 whole entry): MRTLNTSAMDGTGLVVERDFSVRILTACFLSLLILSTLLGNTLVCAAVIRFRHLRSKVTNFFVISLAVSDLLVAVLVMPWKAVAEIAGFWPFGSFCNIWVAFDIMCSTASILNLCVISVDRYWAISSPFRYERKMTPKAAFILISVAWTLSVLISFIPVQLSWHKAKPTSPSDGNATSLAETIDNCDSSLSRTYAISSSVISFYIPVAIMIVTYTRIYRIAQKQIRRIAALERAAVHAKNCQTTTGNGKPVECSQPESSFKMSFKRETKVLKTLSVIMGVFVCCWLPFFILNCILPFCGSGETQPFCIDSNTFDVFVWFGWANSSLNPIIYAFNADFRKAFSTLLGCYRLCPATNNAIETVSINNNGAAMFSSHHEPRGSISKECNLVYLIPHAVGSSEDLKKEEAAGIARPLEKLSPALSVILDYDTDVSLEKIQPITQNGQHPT
# T3 sequence (Q99720 whole entry): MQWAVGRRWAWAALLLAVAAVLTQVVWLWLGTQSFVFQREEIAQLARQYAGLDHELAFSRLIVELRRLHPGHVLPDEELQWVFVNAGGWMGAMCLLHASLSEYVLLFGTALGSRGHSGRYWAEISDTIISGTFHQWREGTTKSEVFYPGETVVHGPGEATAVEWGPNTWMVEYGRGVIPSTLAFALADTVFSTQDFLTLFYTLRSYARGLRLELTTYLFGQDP
Bmax (VMAT-2),pKi (VMAT-2),"% inhibition, (e) D2L Receptor (Dopamine D2L Receptor)","% inhibition, (m) σ1 Receptor (Sigma σ1 Receptor)","% inhibition, (f) D2S Receptor (Dopamine D2S Receptor)","% inhibition, (k) I2 Receptor (central) [1]","% inhibition, (d) D1 Receptor (Dopamine D1 Receptor)","% inhibition, (b) α2B Receptor (Adrenergic α2B Receptor)",Structure (SMILES)
0.174 ± 0.035 fmol/µg,6.35,54%,83%,63%,24%,29%,21%,"COc1cc2c(cc1O)[C@@H]1C[C@@H](O)[C@H](CC(C)C)CN1CC2 (single isomer, unassigned) [(+)-10-desmethyl-γ-dihydrotetrabenazine]"
0.101 ± 0.009 fmol/µg,8.74,98%,55%,98%,66%,96%,44%,"COc1cc2c(cc1O)[C@@H]1C[C@@H](O)[C@H](CC(C)C)CN1CC2 (single isomer, unassigned) [(−)-10-desmethyl-γ-dihydrotetrabenazine]"
